The text below walks through data of patent US11566022B2, “3-(5-methoxy-1-oxoisoindolin-2-yl)piperidine-2,6-dione derivatives and uses thereof” (NOVARTIS AG, priority 2019, dated 2023).

Read-outs that look alike come from different tables or passages of the source. Where only a bound is given, the exact number is not on record here.

The target in the experiment is HiBit-WIZ fusion protein (Homo sapiens, UniProt O95785+Q96SW2). Kind of experiment: Quantification of WIZ protein levels in HiBit tag fusion protein assay (WIZ HiBit assay in 293T cells). The experiment is classed as cell-based. Also noted: Dmax: dose or concentration left out as unconfirmed. For orientation: With HiBiT, luminescence reflects the tagged protein that the partner subunit can reach.

Where [1] appears, read: HEK-293T, 100 minus Amax; 293T cells; read-out: % degradation of WIZ (100-Amax).
[2] abbreviates: HEK-293T, DMSO-normalized, curve-fitted percentage of WIZ-HiBit remaining at 25 uM; 293T cells; read-out: WIZ Amax.
Where [3] appears, read: WIZ HiBit assay in 293T cells; 10-point, 5-fold dose response, highest concentration 25 μM, about 18 hours; read-out: WIZ AC50.

HiBit-WIZ fusion protein, sequence (O95785 whole entry, the tested form may be a part): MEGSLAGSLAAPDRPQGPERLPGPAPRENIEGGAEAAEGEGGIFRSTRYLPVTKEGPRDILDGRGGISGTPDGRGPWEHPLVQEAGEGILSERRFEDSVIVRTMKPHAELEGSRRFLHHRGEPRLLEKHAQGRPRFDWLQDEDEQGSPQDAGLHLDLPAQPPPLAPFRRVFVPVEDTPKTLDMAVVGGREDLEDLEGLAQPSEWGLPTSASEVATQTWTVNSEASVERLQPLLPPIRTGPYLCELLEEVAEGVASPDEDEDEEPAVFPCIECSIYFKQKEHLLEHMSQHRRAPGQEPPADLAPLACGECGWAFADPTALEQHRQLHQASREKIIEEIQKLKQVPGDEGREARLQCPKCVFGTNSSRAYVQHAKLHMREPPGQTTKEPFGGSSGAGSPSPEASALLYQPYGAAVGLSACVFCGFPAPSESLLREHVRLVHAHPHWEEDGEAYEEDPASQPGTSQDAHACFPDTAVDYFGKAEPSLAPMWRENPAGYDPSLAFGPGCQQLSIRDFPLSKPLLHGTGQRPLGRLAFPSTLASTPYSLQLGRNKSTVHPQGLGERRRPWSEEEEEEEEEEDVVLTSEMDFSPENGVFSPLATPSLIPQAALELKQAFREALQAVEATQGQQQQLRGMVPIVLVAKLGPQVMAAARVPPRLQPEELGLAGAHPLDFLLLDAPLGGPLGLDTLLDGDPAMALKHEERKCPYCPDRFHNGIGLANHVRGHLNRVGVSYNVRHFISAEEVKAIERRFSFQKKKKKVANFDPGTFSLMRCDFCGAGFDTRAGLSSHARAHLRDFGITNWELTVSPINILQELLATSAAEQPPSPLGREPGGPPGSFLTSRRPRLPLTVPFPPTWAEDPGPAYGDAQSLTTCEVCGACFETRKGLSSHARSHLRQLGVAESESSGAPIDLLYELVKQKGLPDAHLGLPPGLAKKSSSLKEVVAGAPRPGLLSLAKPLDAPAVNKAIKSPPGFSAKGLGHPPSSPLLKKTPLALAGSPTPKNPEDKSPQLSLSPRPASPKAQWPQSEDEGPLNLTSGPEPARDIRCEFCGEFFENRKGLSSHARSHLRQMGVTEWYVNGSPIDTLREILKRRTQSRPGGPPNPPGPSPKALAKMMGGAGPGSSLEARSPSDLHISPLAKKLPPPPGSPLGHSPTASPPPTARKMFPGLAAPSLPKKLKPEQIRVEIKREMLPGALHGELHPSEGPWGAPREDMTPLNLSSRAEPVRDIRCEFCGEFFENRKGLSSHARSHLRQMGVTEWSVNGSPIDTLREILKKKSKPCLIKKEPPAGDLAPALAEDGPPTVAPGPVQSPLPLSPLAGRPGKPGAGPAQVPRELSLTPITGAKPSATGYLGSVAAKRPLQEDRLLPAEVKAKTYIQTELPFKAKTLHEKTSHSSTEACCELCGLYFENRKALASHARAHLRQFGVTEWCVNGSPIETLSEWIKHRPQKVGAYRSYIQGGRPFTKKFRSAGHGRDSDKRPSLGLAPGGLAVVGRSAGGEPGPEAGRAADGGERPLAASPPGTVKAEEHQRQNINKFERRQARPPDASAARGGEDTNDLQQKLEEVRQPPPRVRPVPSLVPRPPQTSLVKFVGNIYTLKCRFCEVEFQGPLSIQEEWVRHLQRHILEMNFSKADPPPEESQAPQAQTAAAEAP
HiBit-WIZ fusion protein, sequence (Q96SW2 whole entry, the tested form may be a part): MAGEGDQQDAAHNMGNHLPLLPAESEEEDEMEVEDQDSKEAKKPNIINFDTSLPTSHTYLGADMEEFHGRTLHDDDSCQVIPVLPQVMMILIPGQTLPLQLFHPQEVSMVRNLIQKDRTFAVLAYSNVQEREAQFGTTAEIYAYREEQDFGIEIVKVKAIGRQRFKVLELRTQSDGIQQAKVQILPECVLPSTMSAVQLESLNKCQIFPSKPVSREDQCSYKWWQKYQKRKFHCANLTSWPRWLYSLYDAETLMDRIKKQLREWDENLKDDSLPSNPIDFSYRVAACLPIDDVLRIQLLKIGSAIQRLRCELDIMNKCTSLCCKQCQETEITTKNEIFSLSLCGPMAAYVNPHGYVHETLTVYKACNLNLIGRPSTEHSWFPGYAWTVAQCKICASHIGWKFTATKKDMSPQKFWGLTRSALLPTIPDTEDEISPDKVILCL
HiBit-WIZ fusion protein, sequence (Q16531 whole entry partner, the tested form may be a part): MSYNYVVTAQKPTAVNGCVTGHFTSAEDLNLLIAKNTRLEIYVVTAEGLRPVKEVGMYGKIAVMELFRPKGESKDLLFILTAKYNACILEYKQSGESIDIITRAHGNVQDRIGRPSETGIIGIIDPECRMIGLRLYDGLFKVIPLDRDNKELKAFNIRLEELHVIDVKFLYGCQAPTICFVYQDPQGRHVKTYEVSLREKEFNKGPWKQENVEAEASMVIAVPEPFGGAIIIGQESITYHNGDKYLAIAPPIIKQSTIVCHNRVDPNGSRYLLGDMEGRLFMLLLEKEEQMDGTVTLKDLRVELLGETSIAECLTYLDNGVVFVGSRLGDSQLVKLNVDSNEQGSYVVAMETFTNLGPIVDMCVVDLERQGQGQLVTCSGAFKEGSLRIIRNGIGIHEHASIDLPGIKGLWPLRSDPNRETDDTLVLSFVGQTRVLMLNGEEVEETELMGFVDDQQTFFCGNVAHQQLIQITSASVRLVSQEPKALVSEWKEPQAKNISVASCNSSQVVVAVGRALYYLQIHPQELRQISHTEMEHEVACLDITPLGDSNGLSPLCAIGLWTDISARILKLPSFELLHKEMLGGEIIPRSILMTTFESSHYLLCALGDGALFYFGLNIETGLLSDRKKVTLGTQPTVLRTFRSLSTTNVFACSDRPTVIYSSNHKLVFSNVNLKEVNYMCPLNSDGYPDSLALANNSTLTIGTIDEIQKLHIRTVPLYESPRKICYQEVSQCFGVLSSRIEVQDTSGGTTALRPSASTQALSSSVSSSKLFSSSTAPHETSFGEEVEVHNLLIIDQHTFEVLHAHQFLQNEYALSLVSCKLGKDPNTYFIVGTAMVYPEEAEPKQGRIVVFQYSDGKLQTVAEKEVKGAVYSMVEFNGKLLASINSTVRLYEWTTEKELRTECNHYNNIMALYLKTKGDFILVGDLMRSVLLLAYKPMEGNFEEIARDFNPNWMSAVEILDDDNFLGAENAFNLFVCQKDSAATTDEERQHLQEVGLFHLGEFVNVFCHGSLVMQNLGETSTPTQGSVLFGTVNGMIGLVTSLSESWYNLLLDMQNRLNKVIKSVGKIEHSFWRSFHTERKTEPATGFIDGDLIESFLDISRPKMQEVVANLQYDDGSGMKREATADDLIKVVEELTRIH

Regarding `CC(C)Cn1cc(CN2CCCC[C@H]2COc2ccc3c(c2)CN(C2CCC(=O)NC2=O)C3=O)cn1` (stereo partly drawn) [Compound I-50ci], the Dmax under setting [1] turned out to be 83.2%. The remaining activity at up to 25 µM under setting [2] is 16.8%. Under setting [3], the DC50 stood at 0.306 µM.

`CNc1ncccc1CN1CCCC[C@@H]1COc1ccc2c(c1)CN(C1CCC(=O)NC1=O)C2=O` (stereo partly drawn) [Compound I-50cj]: the Dmax under setting [1] was found to be 71.8%. The remaining activity at up to 25 µM under setting [2] was 28.2%. Also, the DC50 under setting [3] worked out at 0.757 µM.

For the molecule `O=C1CCC(N2Cc3cc(OC[C@@H]4CCCCN4Cc4cnn(Cc5ccccc5)c4)ccc3C2=O)C(=O)N1` (stereo partly drawn) [Compound I-50ck], the Dmax under setting [1] came to 83.2%. The remaining activity at up to 25 µM under setting [2] turned out to be 16.8%. Besides, under setting [3], the DC50 is 0.766 µM.

Take `O=C1CCC(N2Cc3cc(OC[C@H]4CCCCN4CC4CCN(C(=O)OCc5ccccc5)CC4)ccc3C2=O)C(=O)N1` (stereo partly drawn) [Compound I-50cl]: under setting [1], the Dmax worked out at 77.7%. Also, the remaining activity at up to 25 µM under setting [2] was 22.3%. Further, the DC50 under setting [3] was 0.644 µM.

For `COc1cc(C#N)ccc1CN1CCCC[C@@H]1COc1ccc2c(c1)CN(C1CCC(=O)NC1=O)C2=O` (stereo partly drawn) [Compound I-50cm], the Dmax under setting [1] worked out at 67.2%. Also, the remaining activity at up to 25 µM under setting [2] amounted to 32.8%. Moreover, the DC50 under setting [3] was determined as 1.77 µM.

Turning to `N#Cc1cccc(Cn2cccc(CN3CCCC[C@@H]3COc3ccc4c(c3)CN(C3CCC(=O)NC3=O)C4=O)c2=O)c1` (stereo partly drawn) [Compound I-50cp], the Dmax under setting [1] is 65.2%. Under setting [2], the remaining activity at up to 25 µM amounted to 34.8%. For the same molecule, the DC50 under setting [3] is 3.53 µM.

With `O=C1CCC(N2Cc3cc(OC[C@@H]4CCCCN4Cc4cncnc4)ccc3C2=O)C(=O)N1` (stereo partly drawn) [Compound I-50cq], under setting [1], the Dmax was 7.3%. Moreover, the remaining activity at up to 25 µM under setting [2] is 92.7%. In addition, the DC50 under setting [3] is greater than 25 µM.

With `O=C1CCC(N2Cc3cc(OC[C@@H]4CCCCN4CC4CCN(C(=O)OCc5ccccc5)CC4)ccc3C2=O)C(=O)N1` (stereo partly drawn) [Compound I-50cr], the Dmax under setting [1] amounted to 52.9%. In addition, the remaining activity at up to 25 µM under setting [2] came to 47.1%. Moreover, the DC50 under setting [3] was greater than 25 µM.

As to `Cc1nc[nH]c1CN1CCCC[C@@H]1COc1ccc2c(c1)CN(C1CCC(=O)NC1=O)C2=O` (stereo partly drawn) [Compound I-50cs], the Dmax under setting [1] was 71.1%. Besides, under setting [2], the remaining activity at up to 25 µM was 28.9%. The DC50 under setting [3] came to 4.41 µM.

As for `O=C1CCC(N2Cc3cc(OC[C@H]4CCCCN4Cc4cnn(-c5cnccn5)c4)ccc3C2=O)C(=O)N1` (stereo partly drawn) [Compound I-50ct], the Dmax under setting [1] stood at 80.2%. Also, the remaining activity at up to 25 µM under setting [2] came out at 19.8%. In addition, the DC50 under setting [3] is 0.133 µM.

In the case of `O=C1CCC(N2Cc3cc(OC[C@@H]4CCCCN4Cc4ccnc(O)c4)ccc3C2=O)C(=O)N1` (stereo partly drawn) [Compound I-50cv], the Dmax under setting [1] came out at 42.6%. Also, under setting [2], the remaining activity at up to 25 µM amounted to 57.4%. Besides, under setting [3], the DC50 was greater than 25 µM.

Consider `Cn1c(CN2CCCC[C@@H]2COc2ccc3c(c2)CN(C2CCC(=O)NC2=O)C3=O)nc2ccccc21` (stereo partly drawn) [Compound I-50cw], for which the Dmax under setting [1] was 39%. For the same molecule, the remaining activity at up to 25 µM under setting [2] worked out at 61%. For the same molecule, the DC50 under setting [3] is greater than 25 µM.

As to `O=C1CCC(N2Cc3cc(OC[C@@H]4CCCCN4Cc4ccnc5[nH]ccc45)ccc3C2=O)C(=O)N1` (stereo partly drawn) [Compound I-50cx], the Dmax under setting [1] stood at 92.6%. In addition, the remaining activity at up to 25 µM under setting [2] stood at 7.4%. In addition, the DC50 under setting [3] turned out to be 0.143 µM.

For `CCc1nc(C)c(CN2CCCC[C@H]2COc2ccc3c(c2)CN(C2CCC(=O)NC2=O)C3=O)[nH]1` (stereo partly drawn) [Compound I-50cy], the Dmax under setting [1] is 89%. Besides, the remaining activity at up to 25 µM under setting [2] amounted to 11%. Also, under setting [3], the DC50 amounted to 0.922 µM.

As for `COC(=O)[C@@H]1CC[C@H](CN2CCCC[C@H]2COc2ccc3c(c2)CN(C2CCC(=O)NC2=O)C3=O)C1` (stereo partly drawn) [Compound I-50cz], under setting [1], the Dmax worked out at 49.8%. For the same molecule, the remaining activity at up to 25 µM under setting [2] is 50.2%. The DC50 under setting [3] was greater than 25 µM.

`COc1ccccc1CN1CCCC[C@H]1COc1ccc2c(c1)CN(C1CCC(=O)NC1=O)C2=O` (stereo partly drawn) [Compound I-50d]: the Dmax under setting [1] was determined as 78.3%. The remaining activity at up to 25 µM under setting [2] came to 21.7%. The DC50 under setting [3] came to 0.784 µM.

Regarding `O=C(O)Cn1cnc(CN2CCCC[C@@H]2COc2ccc3c(c2)CN(C2CCC(=O)NC2=O)C3=O)c1` (stereo partly drawn) [Compound I-50da], under setting [1], the Dmax is 65.1%. Moreover, under setting [2], the remaining activity at up to 25 µM was found to be 34.9%. In addition, the DC50 under setting [3] is 5.13 µM.

Regarding `COC(=O)c1nn(-c2cccc(C(F)(F)F)c2)cc1CN1CCCC[C@@H]1COc1ccc2c(c1)CN(C1CCC(=O)NC1=O)C2=O` (stereo partly drawn) [Compound I-50dc], the Dmax under setting [1] worked out at 39.8%. The remaining activity at up to 25 µM under setting [2] amounted to 60.2%. Besides, the DC50 under setting [3] is greater than 25 µM.

On to `O=C1CCC(N2Cc3cc(OC[C@H]4CCCCN4Cc4ccccc4Cn4cncn4)ccc3C2=O)C(=O)N1` (stereo partly drawn) [Compound I-50dd], for which the Dmax under setting [1] was 39.6%. Also, under setting [2], the remaining activity at up to 25 µM came out at 60.4%. For the same molecule, the DC50 under setting [3] was greater than 25 µM.

Regarding `NS(=O)(=O)c1ccc(CN2CCCC[C@H]2COc2ccc3c(c2)CN(C2CCC(=O)NC2=O)C3=O)cc1` (stereo partly drawn) [Compound I-50de], the Dmax (HEK-293T, read-out: % degradation of WIZ (100-Amax)) is 58.5%. The remaining activity (HEK-293T, read-out: WIZ Amax) came to 41.5%. Besides, the DC50 (read-out: WIZ AC50; WIZ HiBit assay in 293T cells; 10-point, 5-fold dose response, highest concentration 25 μM, about 18 hours) turned out to be 18.4 µM.

`Cn1cncc1CN1CCCC[C@@H]1COc1ccc2c(c1)CN(C1CCC(=O)NC1=O)C2=O` (stereo partly drawn) [Compound I-50df]: the Dmax under setting [1] is 55.9%. Under setting [2], the remaining activity at up to 25 µM was found to be 44.1%. Moreover, under setting [3], the DC50 amounted to 11.1 µM.

As to `O=C1CCC(N2Cc3cc(OC[C@@H]4CCCCN4Cc4ncccc4O)ccc3C2=O)C(=O)N1` (stereo partly drawn) [Compound I-50dg], under setting [1], the Dmax turned out to be 16.1%. Besides, the remaining activity at up to 25 µM under setting [2] is 83.9%. In addition, the DC50 under setting [3] was greater than 25 µM.

As to `CCc1nc(C)c(CN2CCCC[C@@H]2COc2ccc3c(c2)CN(C2CCC(=O)NC2=O)C3=O)[nH]1` (stereo partly drawn) [Compound I-50dh], the Dmax under setting [1] was 66.9%. The remaining activity at up to 25 µM under setting [2] is 33.1%. Also, the DC50 under setting [3] came to 6.53 µM.

As for `CN(C)Cc1ncc(-c2ccc(Oc3cc(Cl)cnc3CN3CCCC[C@@H]3COc3ccc4c(c3)CN(C3CCC(=O)NC3=O)C4=O)cc2)n1C` (stereo partly drawn) [Compound I-50di], under setting [1], the Dmax worked out at 79%. Moreover, under setting [2], the remaining activity at up to 25 µM was found to be 21%. The DC50 under setting [3] is 1.18 µM.

Consider `Cc1cccc(-c2n[nH]cc2CN2CCCC[C@@H]2COc2ccc3c(c2)CN(C2CCC(=O)NC2=O)C3=O)c1` (stereo partly drawn) [Compound I-50dj], for which, under setting [1], the Dmax worked out at 99.7%. In addition, the remaining activity at up to 25 µM under setting [2] is 0.3%. The DC50 under setting [3] worked out at 2.45 µM.

With `O=C1CCC(N2Cc3cc(OC[C@H]4CCCCN4Cc4ccnc5[nH]ccc45)ccc3C2=O)C(=O)N1` (stereo partly drawn) [Compound I-50dk], under setting [1], the Dmax worked out at 87%. Moreover, the remaining activity at up to 25 µM under setting [2] amounted to 13%. In addition, the DC50 under setting [3] is 0.147 µM.

Consider `Cn1nc(CN2CCCC[C@@H]2COc2ccc3c(c2)CN(C2CCC(=O)NC2=O)C3=O)cc1-c1ccccc1` (stereo partly drawn) [Compound I-50dm], for which the Dmax under setting [1] was 100%. Under setting [2], the remaining activity at up to 25 µM is 0%. Also, under setting [3], the DC50 worked out at 0.007 µM.

Consider `N#Cc1cc(CN2CCCC[C@@H]2COc2ccc3c(c2)CN(C2CCC(=O)NC2=O)C3=O)ccn1` (stereo partly drawn) [Compound I-50dn], for which the Dmax under setting [1] was 21.2%. Also, the remaining activity at up to 25 µM under setting [2] came out at 78.8%. Further, under setting [3], the DC50 is greater than 25 µM.

`O=C1CCC(N2Cc3cc(OC[C@H]4CCCCN4Cc4cccc(N5CCCC5)c4)ccc3C2=O)C(=O)N1` (stereo partly drawn) [Compound I-50do]: the Dmax under setting [1] was determined as 99.9%. For the same molecule, the remaining activity at up to 25 µM under setting [2] came to 0.1%. Also, the DC50 under setting [3] is 0.002 µM.
